Measured values published in PMC4072041 (Nuclear medicine and biology, 2014).
Blank lines part the entries; values can stand above or below the molecule they belong to.

Experiments:
[1] = test system: CRF1 receptor; conditions: earlier CRF1 ligand; cited from earlier work
[2] = test system: CRF1 vs. CRF2 receptors; conditions: stated in method, no reference given; cited from earlier work
[3] = biological target: T1, [125I]ovine-CRF (Ovis aries, UniProt P01142, 125I-labelled CRF); test: radioligand binding
T1 chain: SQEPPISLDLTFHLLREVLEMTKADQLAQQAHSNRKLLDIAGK

Molecule: CCC(COC)n1nnc2c(Nc3ccc(OC)cc3C)nc(C)cc21 (racemic) [[^3H]SN003, (+/−)-N-[2-methyl-4-methoxyphenyl]-1(1-(methoxymethyl)propyl)-6-methyl-1H-1,2,3-triazolo[4,5-c]pyridin-4-amine]
ratio of CRF1 receptor-specific to non-specific binding [1]: about 1

Molecule: ovine-CRF
selective for CRF1 vs. CRF2 [2]: > 100 fold

Kd [3]: 450 pM
B1: CRF1 receptor (protein)
chain: SLQDQRCENLSLTSNVSGLQCNASVDLIGTCWPRSPAGQLVVRPCPAFFYGVRYNTTNNGYRECLANGSWAARVNYSECQEILNEEKKSKVHYHVAVIINYLGHCISLVALLVAFVLFLRLRSIRCLRNIIHWNLISAFILRNATWFVVQLTVSPEVHQSNVAWCRLVTAAYNYFHVTNFFWMFGEGCYLHTAIVLTYSTDRLRKWMFVCIGWGVPFPIIVAWAIGKLHYDNEKCWFGKRPGVYTDYIYQGPMILVLLINFIFLFNIVRILMTKLRASTTSETIQYRKAVKATLVLLPLLGITYMLFFVNPGEDEVSRVVFIYFNSFLESFQGFFVSVFYCFLNSEVRSAIRKRWRRWQDKHSIRARVARAMSIPTSPTRVSFHSIKQSTAV
